Reference: the supplement of paper PMC10307832

Compound: COc1cc([C@@H]2c3cc4c(cc3[C@@H](O[C@@H]3O[C@@H]5CO[C@@H](C)O[C@H]5[C@H](O)[C@H]3O)[C@H]3COC(=O)[C@H]23)OCO4)cc(OC)c1O [Etoposide] + Cc1cc(Nc2cc(N3CCN(C)CC3)nc(Sc3ccc(NC(=O)C4CC4)cc3)n2)n[nH]1 [Tozasertib] (partner 0.1 µM)
Test: relative viability (nuclei count vs DMSO), 5 days (fraction); higher = more cells survive
Conditions: first compound 0.01 µM
Summary of the method: (§1)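 Lung cancer cell lines in 1536-well plates were dosed by pin tool the day after seeding, either with one drug alone or with a fixed anchor-drug dose plus five library-drug doses (not always all listed) in √10 steps. After 5 days, cells were fixed and their nuclei stained in one step (final 0.05% Triton X-100, 1% formaldehyde, 1 ug/ml Hoechst), then counted on 4× images. Relative viability is the nuclei count in treated wells divided by that in vehicle wells. Values are medians of duplicate plates.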

Cell Line	relative viability
HOP-62	0.388
SW 900	0.459
LU99A	0.283
BEN	0.463
HARA	0.149
NCI-H441	0.511
LCLC-97TM1	0.201
NCI-H2009	0.767
A-427	0.213
NCI-H460	0.396
NCI-H727	0.623
NCI-H1734	0.269
NCI-H520	0.427
NCI-H2405	0.745
SW 1573	0.163
NCI-H1395	0.616
201T	0.824
NCI-H1915	0.438
HCC-827	0.388
LXF-289	0.209
NCI-H2347	0.518
NCI-H650	0.693
CAL-12T	0.256
NCI-H1651	0.675
EPLC-272H	0.336
NCI-H23	0.344
NCI-H1355	0.515
NCI-H322M	0.484
NCI-H1437	0.433

Same assay, conditions: first compound 0.03162 µM

Cell Line	relative viability
HOP-62	0.386
SW 900	0.666
LU99A	0.277
BEN	0.503
HARA	0.112
NCI-H441	0.541
LCLC-97TM1	0.2
NCI-H2009	0.745
A-427	0.224
NCI-H460	0.369
NCI-H727	0.677
NCI-H1734	0.254
NCI-H520	0.408
NCI-H2405	0.77
SW 1573	0.133
NCI-H1395	0.758
201T	0.995
NCI-H1915	0.459
HCC-827	0.453
LXF-289	0.166
NCI-H2347	0.554
NCI-H650	0.717
CAL-12T	0.297
NCI-H1651	0.692
EPLC-272H	0.213
NCI-H23	0.333
NCI-H1355	0.536
NCI-H322M	0.47
NCI-H1437	0.4

Same assay, conditions: first compound 0.1 µM

Cell Line	relative viability
HOP-62	0.366
SW 900	0.55
LU99A	0.262
HARA	0.127
NCI-H441	0.418
LCLC-97TM1	0.208
NCI-H2009	0.782
A-427	0.219
NCI-H460	0.338
NCI-H1734	0.279
NCI-H2405	0.86
SW 1573	0.164
NCI-H1395	0.665
201T	0.886
NCI-H1915	0.473
HCC-827	0.433
LXF-289	0.196
NCI-H2347	0.419
NCI-H650	0.498
CAL-12T	0.408
NCI-H1651	0.547
EPLC-272H	0.211
NCI-H23	0.29
NCI-H1355	0.433
NCI-H322M	0.423
NCI-H1437	0.429

Same assay, conditions: first compound 0.3162 µM

Cell Line	relative viability
HOP-62	0.279
SW 900	0.341
LU99A	0.247
BEN	0.483
HARA	0.0757
NCI-H441	0.289
LCLC-97TM1	0.19
NCI-H2009	0.557
A-427	0.165
NCI-H460	0.0692
NCI-H727	0.605
NCI-H1734	0.273
NCI-H520	0.462
NCI-H2405	0.576
SW 1573	0.156
NCI-H1395	0.74
201T	0.709
NCI-H1915	0.353
HCC-827	0.192
LXF-289	0.111
NCI-H2347	0.433
NCI-H650	0.258
CAL-12T	0.264
NCI-H1651	0.159
EPLC-272H	0.235
NCI-H23	0.201
NCI-H1355	0.313
NCI-H322M	0.441
NCI-H1437	0.293

Same assay, conditions: first compound 1 µM

Cell Line	relative viability
HOP-62	0.203
SW 900	0.224
LU99A	0.241
BEN	0.481
HARA	0.0743
NCI-H441	0.264
LCLC-97TM1	0.144
NCI-H2009	0.431
A-427	0.147
NCI-H460	0.0251
NCI-H727	0.692
NCI-H1734	0.24
NCI-H520	0.396
NCI-H2405	0.294
SW 1573	0.0887
NCI-H1395	0.592
201T	0.465
NCI-H1915	0.308
HCC-827	0.173
LXF-289	0.0978
NCI-H2347	0.291
NCI-H650	0.166
CAL-12T	0.28
NCI-H1651	0.156
EPLC-272H	0.112
NCI-H23	0.163
NCI-H1355	0.228
NCI-H322M	0.425
NCI-H1437	0.318

Compound: CC1=C(N=C(N=C1N)[C@H](CC(=O)N)NC[C@@H](C(=O)N)N)C(=O)N[C@@H]([C@H](C2=CN=CN2)OC3C(C(C(C(O3)CO)O)O)OC4C(C(C(C(O4)CO)O)OC(=O)N)O)C(=O)N[C@H](C)[C@H]([C@H](C)C(=O)N[C@@H]([C@@H](C)O)C(=O)NCCC5=NC(=CS5)C6=NC(=CS6)C(=O)NCCC[S+](C)C)O [Bleomycin] + O=C(CCCCCCC(=O)Nc1ccccc1)NO [Vorinostat] (partner 1 µM)
Test: as above
Conditions: first compound 0.01 µM; main component drawn
Summary of the method: as §1

Cell Line	relative viability
HOP-62	0.277
SW 900	0.403
LU99A	0.394
BEN	0.63
HARA	0.458
NCI-H441	0.646
LCLC-97TM1	0.179
NCI-H2009	0.662
A-427	0.753
NCI-H460	0.4
NCI-H727	1.18
NCI-H1734	0.612
NCI-H520	0.592
NCI-H2405	0.792
SW 1573	0.609
NCI-H1395	0.574
201T	0.79
NCI-H1915	0.377
HCC-827	0.857
LXF-289	0.723
NCI-H2347	0.487
NCI-H650	0.295
CAL-12T	0.542
NCI-H1651	0.519
EPLC-272H	0.296
NCI-H23	0.264
NCI-H1355	0.599
NCI-H322M	0.815
NCI-H1437	0.712

Same assay, conditions: first compound 0.03162 µM; main component drawn

Cell Line	relative viability
HOP-62	0.277
SW 900	0.513
LU99A	0.392
BEN	0.609
HARA	0.469
NCI-H441	0.546
LCLC-97TM1	0.15
NCI-H2009	0.739
A-427	0.768
NCI-H460	0.221
NCI-H727	1.17
NCI-H1734	0.623
NCI-H520	0.743
NCI-H2405	1
SW 1573	0.447
NCI-H1395	0.656
201T	0.839
NCI-H1915	0.383
LXF-289	0.718
NCI-H2347	0.518
NCI-H650	0.441
CAL-12T	0.532
NCI-H1651	0.505
EPLC-272H	0.323
NCI-H23	0.316
NCI-H1355	0.627
NCI-H322M	0.888
NCI-H1437	0.758

Same assay, conditions: first compound 0.1 µM; main component drawn

Cell Line	relative viability
HOP-62	0.179
SW 900	0.427
LU99A	0.353
BEN	0.481
HARA	0.317
NCI-H441	0.686
LCLC-97TM1	0.18
NCI-H2009	0.854
A-427	0.717
NCI-H460	0.158
NCI-H727	1.08
NCI-H1734	0.472
NCI-H520	0.589
NCI-H2405	0.816
SW 1573	0.481
NCI-H1395	0.403
201T	0.805
NCI-H1915	0.291
HCC-827	0.736
LXF-289	0.614
NCI-H2347	0.414
NCI-H650	0.376
CAL-12T	0.351
NCI-H1651	0.392
EPLC-272H	0.223
NCI-H23	0.219
NCI-H1355	0.676
NCI-H322M	0.818
NCI-H1437	0.733

Same assay, conditions: first compound 0.3162 µM; main component drawn

Cell Line	relative viability
HOP-62	0.102
SW 900	0.207
LU99A	0.207
BEN	0.531
HARA	0.258
NCI-H441	0.453
LCLC-97TM1	0.106
NCI-H2009	0.541
A-427	0.46
NCI-H460	0.0343
NCI-H727	0.618
NCI-H1734	0.231
NCI-H520	0.574
NCI-H2405	0.59
SW 1573	0.271
NCI-H1395	0.35
201T	0.732
NCI-H1915	0.162
HCC-827	0.585
LXF-289	0.331
NCI-H2347	0.338
NCI-H650	0.328
CAL-12T	0.166
NCI-H1651	0.356
EPLC-272H	0.12
NCI-H23	0.123
NCI-H1355	0.325
NCI-H322M	0.577
NCI-H1437	0.458

Same assay, conditions: first compound 1 µM; main component drawn

Cell Line	relative viability
HOP-62	0.0753
SW 900	0.217
LU99A	0.125
BEN	0.497
HARA	0.173
NCI-H441	0.312
LCLC-97TM1	0.0733
NCI-H2009	0.36
A-427	0.271
NCI-H460	0.0306
NCI-H727	0.93
NCI-H1734	0.15
NCI-H520	0.416
NCI-H2405	0.321
SW 1573	0.187
NCI-H1395	0.359
201T	0.553
NCI-H1915	0.116
HCC-827	0.207
LXF-289	0.167
NCI-H2347	0.39
NCI-H650	0.212
CAL-12T	0.155
NCI-H1651	0.152
EPLC-272H	0.0952
NCI-H23	0.127
NCI-H1355	0.207
NCI-H322M	0.647
NCI-H1437	0.413

Compound: CC1=C(N=C(N=C1N)[C@H](CC(=O)N)NC[C@@H](C(=O)N)N)C(=O)N[C@@H]([C@H](C2=CN=CN2)OC3C(C(C(C(O3)CO)O)O)OC4C(C(C(C(O4)CO)O)OC(=O)N)O)C(=O)N[C@H](C)[C@H]([C@H](C)C(=O)N[C@@H]([C@@H](C)O)C(=O)NCCC5=NC(=CS5)C6=NC(=CS6)C(=O)NCCC[S+](C)C)O [Bleomycin] + CCNC(=O)c1noc(-c2cc(C(C)C)c(O)cc2O)c1-c1ccc(CN2CCOCC2)cc1 [Luminespib] (partner 0.01 µM)
Test: as above
Conditions: first compound 0.01 µM; main component drawn
Summary of the method: as §1

Cell Line	relative viability
HOP-62	0.66
